The results in this text go back to PMC7932521, “2-aminobenzimidazoles for leishmaniasis: From initial hit discovery to in vivo profiling” (PLoS Neglected Tropical Diseases, 2021).

In data set [1] the target is T1, D2L (Homo sapiens, UniProt P14416).
T1 construct: expressed in transfected cells; host or cells: CHO
Description: Bioprofiling 6pt Antag D2L CHO. The data set is classed as cell-based. The settings on record: antagonist readout vs Quinpirole. The method, then: (§1) The compounds were evaluated across a panel of 20 liability targets (37 functional assays) which included functional cell-based GPCRs and ion channels in both agonist and antagonist readout, measuring calcium flux and biochemical functional assays for nuclear hormone receptors and phosphodiesterases using TR-FRET format, in a 6 point 1:3 dilution dose series (maximum final concentration of 10 μM).

For a further data set, the system named is CHO. Description: Bioprofiling 6pt Ag CHO Hamster. The settings on record: agonist readout. Type of data set: cell-based. The protocol: as §1
The target in another data set is Cav1.2 (L-type) (Mus musculus, UniProt Q01815). Description: Bioprofiling 6pt Antag Cav1.2 (L-type) ND7/23. The data set is classed as cell-based. The settings on record: mouse/rat, ND7/23 cells; antagonist readout vs KCl. The method, then: as §1
Sequence of Cav1.2 (L-type) (Q01815 whole entry): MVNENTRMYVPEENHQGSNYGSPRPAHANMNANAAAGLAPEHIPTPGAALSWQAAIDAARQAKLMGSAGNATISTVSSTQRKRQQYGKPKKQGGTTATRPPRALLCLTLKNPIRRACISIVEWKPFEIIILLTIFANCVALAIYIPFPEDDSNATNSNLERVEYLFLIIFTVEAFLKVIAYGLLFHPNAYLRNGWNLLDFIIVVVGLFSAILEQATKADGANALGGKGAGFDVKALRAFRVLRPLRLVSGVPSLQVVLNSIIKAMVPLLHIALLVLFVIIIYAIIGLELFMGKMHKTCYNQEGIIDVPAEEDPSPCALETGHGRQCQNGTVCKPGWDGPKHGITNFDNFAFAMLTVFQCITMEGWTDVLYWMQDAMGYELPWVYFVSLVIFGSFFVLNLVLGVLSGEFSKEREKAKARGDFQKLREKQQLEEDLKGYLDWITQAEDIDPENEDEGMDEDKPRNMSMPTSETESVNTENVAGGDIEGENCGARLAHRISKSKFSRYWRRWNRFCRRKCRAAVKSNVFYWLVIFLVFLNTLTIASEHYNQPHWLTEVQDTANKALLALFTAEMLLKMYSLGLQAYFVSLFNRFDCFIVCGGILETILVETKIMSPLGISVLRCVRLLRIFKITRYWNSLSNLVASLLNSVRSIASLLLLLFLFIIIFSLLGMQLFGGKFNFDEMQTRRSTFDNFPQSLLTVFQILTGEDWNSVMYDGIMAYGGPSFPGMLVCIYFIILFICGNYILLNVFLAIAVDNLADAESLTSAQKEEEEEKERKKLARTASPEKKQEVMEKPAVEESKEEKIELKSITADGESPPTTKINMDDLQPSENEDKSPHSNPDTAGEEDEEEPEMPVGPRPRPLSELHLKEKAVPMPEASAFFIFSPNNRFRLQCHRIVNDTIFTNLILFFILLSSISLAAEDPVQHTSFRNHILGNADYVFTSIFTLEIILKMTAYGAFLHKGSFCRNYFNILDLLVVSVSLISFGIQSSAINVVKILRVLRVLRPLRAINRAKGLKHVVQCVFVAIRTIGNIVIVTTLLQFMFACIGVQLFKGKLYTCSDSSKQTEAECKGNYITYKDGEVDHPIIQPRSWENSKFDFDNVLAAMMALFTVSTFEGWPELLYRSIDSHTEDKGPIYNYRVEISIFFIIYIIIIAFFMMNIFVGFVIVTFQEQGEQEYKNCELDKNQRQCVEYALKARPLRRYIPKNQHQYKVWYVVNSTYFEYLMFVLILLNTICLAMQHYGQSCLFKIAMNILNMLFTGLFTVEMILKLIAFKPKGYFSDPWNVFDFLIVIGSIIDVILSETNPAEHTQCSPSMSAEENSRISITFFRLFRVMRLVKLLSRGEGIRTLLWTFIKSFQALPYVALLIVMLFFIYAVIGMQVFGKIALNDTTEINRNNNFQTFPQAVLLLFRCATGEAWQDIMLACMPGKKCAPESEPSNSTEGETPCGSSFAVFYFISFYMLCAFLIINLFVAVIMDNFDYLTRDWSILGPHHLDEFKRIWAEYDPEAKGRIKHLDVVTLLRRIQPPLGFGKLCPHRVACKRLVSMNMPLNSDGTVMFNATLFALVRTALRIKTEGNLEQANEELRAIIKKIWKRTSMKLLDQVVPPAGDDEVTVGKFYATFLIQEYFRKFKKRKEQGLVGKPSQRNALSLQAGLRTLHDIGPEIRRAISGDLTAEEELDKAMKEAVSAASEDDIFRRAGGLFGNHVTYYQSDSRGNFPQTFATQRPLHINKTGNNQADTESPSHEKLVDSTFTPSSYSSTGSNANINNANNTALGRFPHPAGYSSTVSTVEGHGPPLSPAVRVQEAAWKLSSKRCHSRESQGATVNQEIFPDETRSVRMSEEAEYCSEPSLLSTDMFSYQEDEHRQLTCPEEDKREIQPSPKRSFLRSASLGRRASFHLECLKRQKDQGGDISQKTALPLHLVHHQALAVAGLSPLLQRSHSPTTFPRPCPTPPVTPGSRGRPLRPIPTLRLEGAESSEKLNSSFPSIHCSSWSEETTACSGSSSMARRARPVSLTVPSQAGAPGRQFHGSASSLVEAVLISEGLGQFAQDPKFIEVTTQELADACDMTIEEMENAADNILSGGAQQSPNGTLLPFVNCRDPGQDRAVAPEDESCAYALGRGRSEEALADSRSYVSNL
In data set [2] the target is T1, D2L. Description: Bioprofiling 6pt Ag D2L CHO. Type of data set: cell-based. To be noted: agonist readout. The method, then:
as §1

A further data set has as its target T2, CB1 (Homo sapiens, UniProt P21554).
T2 construct: expressed in transfected cells; host or cells: CHO
Put plainly: Bioprofiling 6pt Antag CB1 CHO. The data set is classed as cell-based. The settings on record: antagonist readout vs WIN 55,212-2. The protocol: as §1

Data set [3] is described as follows: Parallel artificial membrane permeability assay (PAMPA). The data set is classed as in vitro ADME. The essentials:
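Compounds at 10μM final in PBS pH 6.5 (donor) against PBS pH 7.4 (acceptor) across lipid-coated membranes, incubated 5 h at 37°C. Donor, acceptor and T0 levels measured by LC-MS/MS to derive effective permeability (Pe); n = 3.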
On the technique in general: In PAMPA a lipid-coated filter parts donor from acceptor wells.

In another data set the target is PDE3A (Homo sapiens, UniProt Q14432). Put plainly: Bioprofiling 6pt Antag PDE3A. The data set is classed as biochemical. The settings on record: substrate cAMP. The protocol: as §1
For a further data set, the target named is T3, ETB (Homo sapiens, UniProt P24530).
T3 construct: expressed in transfected cells; host or cells: CHO
T3 sequence (P24530 27-442): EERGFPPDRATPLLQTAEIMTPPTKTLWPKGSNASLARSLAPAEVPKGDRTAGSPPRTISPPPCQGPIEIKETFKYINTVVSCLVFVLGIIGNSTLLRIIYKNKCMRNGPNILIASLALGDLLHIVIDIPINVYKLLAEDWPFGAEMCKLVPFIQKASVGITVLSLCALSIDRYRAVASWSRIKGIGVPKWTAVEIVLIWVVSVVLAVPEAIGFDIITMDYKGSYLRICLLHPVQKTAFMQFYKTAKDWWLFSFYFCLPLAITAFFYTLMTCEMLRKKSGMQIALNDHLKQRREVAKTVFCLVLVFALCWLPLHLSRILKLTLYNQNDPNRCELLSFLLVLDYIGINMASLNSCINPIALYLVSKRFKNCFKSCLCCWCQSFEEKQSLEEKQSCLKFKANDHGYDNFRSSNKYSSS
Put plainly: Bioprofiling 6pt Ag ETB CHO. The data set is classed as cell-based. To be noted: agonist readout. The method, then:
as §1

The target in the next data set is T4, Alpha2A (Homo sapiens, UniProt P08913).
T4 construct: expressed in transfected cells; host or cells: CHO
T4 sequence (P08913 1-465): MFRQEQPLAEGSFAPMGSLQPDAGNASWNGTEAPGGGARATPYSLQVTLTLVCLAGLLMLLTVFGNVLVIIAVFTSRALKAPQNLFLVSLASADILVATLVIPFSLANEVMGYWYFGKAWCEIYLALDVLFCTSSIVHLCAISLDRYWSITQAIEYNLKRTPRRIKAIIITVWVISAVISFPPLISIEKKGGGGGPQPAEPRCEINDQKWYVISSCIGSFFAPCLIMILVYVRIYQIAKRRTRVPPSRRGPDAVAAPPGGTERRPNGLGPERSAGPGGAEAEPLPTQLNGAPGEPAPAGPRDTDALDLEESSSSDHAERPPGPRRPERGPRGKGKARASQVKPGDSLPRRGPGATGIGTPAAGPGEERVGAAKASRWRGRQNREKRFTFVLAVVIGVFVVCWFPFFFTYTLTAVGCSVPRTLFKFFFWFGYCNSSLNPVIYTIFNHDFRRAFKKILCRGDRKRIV
Put plainly: Bioprofiling 6pt Antag Alpha2A CHO. Type of data set: cell-based. The settings on record: antagonist readout vs UK-14304. The protocol: as §1

The target of the next data set is T5, H1 (Homo sapiens, UniProt P35367).
T5 construct: expressed in transfected cells; host or cells: CHO
T5 sequence (P35367 whole entry): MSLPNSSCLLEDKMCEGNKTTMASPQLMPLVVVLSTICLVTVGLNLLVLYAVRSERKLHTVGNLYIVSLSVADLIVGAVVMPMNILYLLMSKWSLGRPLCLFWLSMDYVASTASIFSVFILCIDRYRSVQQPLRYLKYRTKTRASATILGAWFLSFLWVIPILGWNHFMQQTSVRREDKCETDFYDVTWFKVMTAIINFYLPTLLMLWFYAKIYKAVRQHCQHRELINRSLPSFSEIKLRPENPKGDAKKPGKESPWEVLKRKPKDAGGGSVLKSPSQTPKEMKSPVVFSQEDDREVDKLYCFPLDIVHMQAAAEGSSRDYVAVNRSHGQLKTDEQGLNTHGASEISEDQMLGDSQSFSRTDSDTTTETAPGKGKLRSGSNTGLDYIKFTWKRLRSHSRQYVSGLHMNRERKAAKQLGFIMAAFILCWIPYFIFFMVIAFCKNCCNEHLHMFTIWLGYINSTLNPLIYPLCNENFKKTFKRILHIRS
Description: Bioprofiling 6pt Ag H1 CHO. The settings on record: agonist readout. Type of data set: cell-based. The protocol: as §1

The target of a further data set is T6, Alpha1A (Homo sapiens, UniProt P35348).
T6 construct: expressed in transfected cells; host or cells: CHO
T6 sequence (P35348 1-466): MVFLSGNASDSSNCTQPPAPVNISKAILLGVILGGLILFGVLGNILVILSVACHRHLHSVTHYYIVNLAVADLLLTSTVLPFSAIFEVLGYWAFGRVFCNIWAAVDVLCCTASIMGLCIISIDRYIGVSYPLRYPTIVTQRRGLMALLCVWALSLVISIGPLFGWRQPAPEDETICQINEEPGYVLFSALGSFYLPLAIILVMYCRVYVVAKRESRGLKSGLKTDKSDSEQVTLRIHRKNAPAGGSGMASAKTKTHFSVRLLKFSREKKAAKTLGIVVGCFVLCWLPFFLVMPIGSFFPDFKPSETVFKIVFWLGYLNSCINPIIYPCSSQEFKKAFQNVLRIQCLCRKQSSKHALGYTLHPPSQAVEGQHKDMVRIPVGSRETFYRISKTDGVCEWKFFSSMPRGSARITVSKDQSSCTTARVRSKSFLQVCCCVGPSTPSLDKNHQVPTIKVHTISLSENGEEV
Put plainly: Bioprofiling 6pt Antag Alpha1A CHO. Type of data set: cell-based. The settings on record: antagonist readout vs A-61603. The protocol:
as §1

Another data set deals with T7, Kv11.1 (hERG) (Homo sapiens, UniProt Q12809).
T7 construct: host or cells: T-REx-CHO, doxycycline-induced
T7 sequence (Q12809 whole entry): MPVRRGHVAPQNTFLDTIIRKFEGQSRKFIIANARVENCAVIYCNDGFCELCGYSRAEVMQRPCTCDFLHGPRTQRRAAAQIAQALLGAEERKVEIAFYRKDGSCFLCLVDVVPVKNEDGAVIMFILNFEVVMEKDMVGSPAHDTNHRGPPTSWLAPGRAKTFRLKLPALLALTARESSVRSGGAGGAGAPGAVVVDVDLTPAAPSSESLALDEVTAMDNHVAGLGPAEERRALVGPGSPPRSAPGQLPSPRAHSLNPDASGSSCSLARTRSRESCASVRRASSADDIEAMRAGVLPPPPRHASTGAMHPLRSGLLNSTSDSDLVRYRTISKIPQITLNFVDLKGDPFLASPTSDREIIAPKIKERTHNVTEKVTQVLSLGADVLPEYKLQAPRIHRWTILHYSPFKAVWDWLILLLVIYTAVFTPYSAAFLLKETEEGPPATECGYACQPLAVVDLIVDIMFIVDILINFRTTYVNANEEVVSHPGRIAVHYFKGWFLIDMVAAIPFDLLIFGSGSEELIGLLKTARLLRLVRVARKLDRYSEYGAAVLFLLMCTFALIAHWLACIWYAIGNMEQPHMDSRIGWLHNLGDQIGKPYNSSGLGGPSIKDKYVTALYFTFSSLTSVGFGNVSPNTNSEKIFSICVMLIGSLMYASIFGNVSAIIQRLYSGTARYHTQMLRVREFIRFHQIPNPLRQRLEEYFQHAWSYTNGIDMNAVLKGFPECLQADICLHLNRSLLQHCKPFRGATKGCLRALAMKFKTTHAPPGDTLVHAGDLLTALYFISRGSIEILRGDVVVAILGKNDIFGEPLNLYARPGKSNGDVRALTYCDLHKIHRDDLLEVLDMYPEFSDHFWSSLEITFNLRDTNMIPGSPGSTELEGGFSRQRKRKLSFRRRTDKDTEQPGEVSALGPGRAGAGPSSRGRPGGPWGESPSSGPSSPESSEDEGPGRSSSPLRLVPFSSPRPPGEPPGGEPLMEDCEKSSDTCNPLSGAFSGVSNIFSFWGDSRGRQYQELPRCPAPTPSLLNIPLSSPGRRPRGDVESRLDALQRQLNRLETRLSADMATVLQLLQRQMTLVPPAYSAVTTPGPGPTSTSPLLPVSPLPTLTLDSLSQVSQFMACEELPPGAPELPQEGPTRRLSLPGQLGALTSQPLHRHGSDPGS
Description: hERG thallium influx assay. The data set is classed as cell-based. To be noted: KCl, read-out: Bioprofiling 6pt Thallium Influx Antag Kv11.1 (hERG) CHO Human IC50. The protocol:
This was adapted from the literature method;[28] briefly, hERG functional activity was measured in an inducible hERG T-RExTM-CHO Cell line (ThermoFisher #K1237) using thallium influx as a surrogate indicator of potassium ion channel activity. Thallium enhances the fluorescent signal of BTC-AM dye (ThermoFisher #B6791). 384 well plates were seeded at 15,000 cells/well with doxycycline hyclate, included to induce expression of the hERG channel, and grown for 48 hours. Media was removed and cells were loaded with 4 μM dye for 90 mins in a low potassium buffer, dye was then removed and compound added to the cells in a high potassium buffer in a 6 point 1:3 dilution dose series (maximum final concentration of 30 μM). After 30 mins of compound incubation, channel activity was recorded upon addition of thallium buffer using a Tetra plate reader. The slope of the kinetic read was used to calculate channel activity.

Where [4] appears, read: PAMPA, S1 Data, read-out: PAMPA Pe.
Setting [5] is: passive permeability, read-out: PAMPA.

Where two headings read alike, the source gives them in different places.

T2 sequence (P21554 whole entry): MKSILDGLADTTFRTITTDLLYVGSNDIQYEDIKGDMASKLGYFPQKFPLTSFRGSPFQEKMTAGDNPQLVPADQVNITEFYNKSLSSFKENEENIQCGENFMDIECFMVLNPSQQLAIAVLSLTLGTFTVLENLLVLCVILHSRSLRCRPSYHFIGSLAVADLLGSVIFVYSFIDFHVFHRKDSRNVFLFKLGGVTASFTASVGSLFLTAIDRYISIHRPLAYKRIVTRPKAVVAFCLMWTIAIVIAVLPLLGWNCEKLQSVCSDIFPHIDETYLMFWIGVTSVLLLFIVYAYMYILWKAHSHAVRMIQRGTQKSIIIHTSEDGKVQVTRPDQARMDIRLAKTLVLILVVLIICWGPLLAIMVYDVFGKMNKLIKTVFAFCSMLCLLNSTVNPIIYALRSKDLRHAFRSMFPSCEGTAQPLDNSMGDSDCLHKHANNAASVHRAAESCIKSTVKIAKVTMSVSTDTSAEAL
T1 sequence (P14416 whole entry): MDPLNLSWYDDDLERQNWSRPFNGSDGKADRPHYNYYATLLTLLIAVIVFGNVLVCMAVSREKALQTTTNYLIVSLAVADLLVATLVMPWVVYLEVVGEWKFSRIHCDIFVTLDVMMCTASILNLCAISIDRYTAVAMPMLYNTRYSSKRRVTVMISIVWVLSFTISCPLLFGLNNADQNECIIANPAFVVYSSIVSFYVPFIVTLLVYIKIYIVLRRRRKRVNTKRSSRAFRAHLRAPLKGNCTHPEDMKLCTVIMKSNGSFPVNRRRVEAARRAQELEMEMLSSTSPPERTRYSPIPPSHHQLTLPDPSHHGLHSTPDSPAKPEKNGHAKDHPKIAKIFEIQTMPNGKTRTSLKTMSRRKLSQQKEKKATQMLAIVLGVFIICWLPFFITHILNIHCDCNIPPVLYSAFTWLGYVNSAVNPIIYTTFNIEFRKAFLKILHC

As for `Cn1nccc1C(=O)Nc1nc2ccc(C#N)cc2n1CC(C)(C)C` [Compound 29, O=C(Nc1n(CC(C)(C)C)c(c2n1)cc(C#N)cc2)c3n(C)ncc3], the IC50 at D2L [1], at Cav1.2 (L-type), against CB1, against PDE3A, against Alpha2A and on Alpha1A was more than 10 µM in each case. Moreover, the IC50 (commonly the concentration that gives 50% inhibition) on Kv11.1 (hERG) was more than 30 µM. Moreover, the EC50 with CHO, at D2L [2], at ETB and at H1 was more than 10 µM in each case. In addition, the Papp at 5 h, 10 μM was 8.71 ×10⁻⁶ cm/s in [3] (setting [4]) and 4.7 ×10⁻⁶ cm/s in data set [3] (setting [5]).

With `Cn1nc(C(F)(F)F)cc1C(=O)Nc1nc2ccc(C#N)cc2n1CC(F)(F)F` [Compound 39, O=C(c1cc(C(F)(F)F)nn1C)Nc2nc(ccc(C#N)c3)c3n2CC(F)(F)F], the IC50 was more than 10 µM at D2L [1]; more than 10 µM against Cav1.2 (L-type); more than 10 µM on CB1; 3.32 µM against PDE3A; more than 10 µM at Alpha2A; more than 10 µM against Alpha1A. The IC50 at Kv11.1 (hERG) was more than 30 µM. The EC50 in the data set with CHO, at D2L [2], at ETB and at H1 was more than 10 µM throughout. For the same compound, the Papp at 5 h, 10 μM in [3] (setting [4]) stood at 2.4 ×10⁻⁶ cm/s; in data set [3] (setting [5]), 10 ×10⁻⁶ cm/s.

With `N#Cc1ccc2nc(NC(=O)c3ccnc(C(F)(F)F)c3)n(CC(F)(F)F)c2c1` [Compound 44, O=C(c1ccnc(C(F)(F)F)c1)Nc2nc(ccc(C#N)c3)c3n2CC(F)(F)F], the IC50 against D2L [1] was more than 10 µM; at Cav1.2 (L-type) it was more than 10 µM; on CB1 it was more than 10 µM; on PDE3A, 2.7 µM; against Alpha2A, more than 10 µM; against Alpha1A it was more than 10 µM. For the same compound, the half-maximal inhibitory concentration (IC50) at Kv11.1 (hERG) is more than 30 µM. Besides, the EC50 in the data set on CHO, on D2L [2], at ETB and at H1 was more than 10 µM in each case. The results for the Papp at 5 h, 10 μM in data set [3] (setting [4]) and in [3] (setting [5]) were 2.32 ×10⁻⁶ cm/s and 2.3 ×10⁻⁶ cm/s, respectively.

Take `COc1ccc(C(=O)Nc2nc3ccc(C#N)cc3n2CC(F)(F)F)cn1` [Compound 43, O=C(c1ccc(OC)nc1)Nc2nc(ccc(C#N)c3)c3n2CC(F)(F)F]: the 50% inhibitory concentration (IC50) against D2L [1], against Cav1.2 (L-type), against CB1, against PDE3A, against Alpha2A and on Alpha1A was more than 10 µM each time. Moreover, at Kv11.1 (hERG), the concentration for half-maximal inhibition (IC50) is more than 30 µM. Also, the concentration giving a half-maximal response (EC50) in the data set on CHO, at D2L [2], at ETB and at H1 was more than 10 µM throughout. Also, the Papp at 5 h, 10 μM in data set [3] (setting [4]) is 14.7 ×10⁻⁶ cm/s.

As for `N#Cc1ccc2nc(NC(=O)c3ccc(C(F)(F)F)nc3)n(CC(F)(F)F)c2c1` [Compound 45, O=C(c1ccc(C(F)(F)F)nc1)Nc2nc(ccc(C#N)c3)c3n2CC(F)(F)F], the IC50 on D2L [1], at Cav1.2 (L-type), against CB1, against PDE3A, against Alpha2A and against Alpha1A was more than 10 µM in each case. Also, the IC50 at Kv11.1 (hERG) is more than 30 µM. In addition, the EC50 in the data set with CHO, at D2L [2], on ETB and at H1 was more than 10 µM each time. The Papp at 5 h, 10 μM in data set [3] (setting [4]) was determined as 5.43 ×10⁻⁶ cm/s.

Regarding `Cn1nccc1C(=O)Nc1nc2ccc(C#N)cc2n1CC(F)(F)F` [Compound 30, O=C(c1ccnn1C)Nc2nc(ccc(C#N)c3)c3n2CC(F)(F)F], the IC50 against D2L [1], against Cav1.2 (L-type), against CB1, against PDE3A, against Alpha2A and against Alpha1A was more than 10 µM in each case. Besides, the IC50 at Kv11.1 (hERG) is more than 30 µM. Moreover, the concentration giving a half-maximal response (EC50) in the data set on CHO, at D2L [2], at ETB and at H1 was more than 10 µM each time. For the same compound, the Papp at 5 h, 10 μM is 27.9 ×10⁻⁶ cm/s in data set [3] (setting [4]) and 7.9 ×10⁻⁶ cm/s in [3] (setting [5]).
